Test systems include SR; HCT-116; SF-268; RXF 393; 786-0; PC-3; UACC-257; DU-145; K562; CCRF-CEM; T47D; SK-MEL-28; NCI/ADR-RES; UACC-62; UO-31; MCF7; SNB-19; COLO 205.
Common to all, as to experiment: NCI tumour cell line growth inhibition, 48 h

This is an account of results in ChEMBL document CHEMBL1201862, “PubChem BioAssay data set” (2004).

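Protocol summary: plate cells (96-well), add compound at 5 concentrations, incubate 48 h, interpolate endpoints linearly. GI50: concentration for 50% inhibition of growth.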 Calls of active or inactive are those of the source. No stated cut-off is given here; in the data, active = GI50 up to about 1.1 µM and inactive = higher. A value given as a limit tells only on which side of the number the result lay.

For the molecule `N=C(N)N/N=C/c1c(-c2ccc(N)cc2)nc2sccn12`, the GI50 in the assay with SR was 33.7 µM (inactive); in the assay with HCT-116, 23.3 µM (inactive); with SF-268, 34.7 µM (inactive); with RXF 393 it was 18.2 µM (inactive); in the assay with 786-0, 23.9 µM (inactive); with PC-3, 22.5 µM (inactive). Besides, the GI50 in the assay with UACC-257 was > 100 µM (inactive); with DU-145, 17.5 µM (inactive); with K562, 26.1 µM (inactive); in the assay with CCRF-CEM it was 26.8 µM (inactive); with T47D, 21.1 µM (inactive); with SK-MEL-28 it was > 100 µM (inactive). For the same molecule, the GI50 with NCI/ADR-RES is > 100 µM (inactive); with UACC-62 it was > 100 µM (inactive); in the assay on UO-31, 20 µM (inactive); with MCF7, 31.6 µM (inactive); with SNB-19 it was 23.2 µM (inactive); in the assay with COLO 205, 23.4 µM (inactive).

Take `CN1CN(c2ccccc2)C2(CCN(CC(C)(c3ccc(F)cc3)C3OCCCO3)CC2)C1=O` (stereo not drawn): the GI50 in the assay with SR was 10 µM (inactive); in the assay on HCT-116 it was 14.9 µM (inactive); with SF-268 it was 17.8 µM (inactive); with RXF 393, 19.7 µM (inactive); in the assay on 786-0 it was 20.4 µM (inactive); in the assay with PC-3, 17.4 µM (inactive). Also, the GI50 with UACC-257 was 16 µM (inactive); in the assay with DU-145 it was 27.6 µM (inactive); in the assay on K562, 13.2 µM (inactive); in the assay with CCRF-CEM it was 13 µM (inactive); with T47D it was 17.7 µM (inactive); in the assay on SK-MEL-28, 16.8 µM (inactive). For the same molecule, the GI50 with NCI/ADR-RES was 12.9 µM (inactive); in the assay with UACC-62 it was 17.9 µM (inactive); in the assay on UO-31 it was 2.32 µM (inactive); with MCF7, 13 µM (inactive); in the assay with SNB-19 it was 17.3 µM (inactive); with COLO 205 it was 17.7 µM (inactive).

Regarding `CC(C)CC1C(=O)NCCC(NC(=O)C(Cc2ccc(OC(C)(C)C)cc2)NC(=O)OC(C)(C)C)C(=O)NC(Cc2ccccc2)C(=O)NC(Cc2ccccc2)NC1=O` (stereo not drawn), the GI50 in the assay on SR was 13.2 µM (inactive); with HCT-116, 4.05 µM (inactive); in the assay on SF-268, 4.51 µM (inactive); with RXF 393 it was 10.3 µM (inactive); with 786-0, 1.71 µM (inactive); in the assay with PC-3, 14.5 µM (inactive). In addition, the GI50 is 12.1 µM (inactive) with UACC-257; 59.4 µM (inactive) in the assay on DU-145; 3.02 µM (inactive) in the assay on K562; 4.3 µM (inactive) in the assay with CCRF-CEM; 3.69 µM (inactive) in the assay on T47D; 18.3 µM (inactive) in the assay on SK-MEL-28. In addition, the GI50 is > 100 µM (inactive) in the assay with NCI/ADR-RES; 6.35 µM (inactive) in the assay on UACC-62; > 100 µM (inactive) with UO-31; 17 µM (inactive) with MCF7; 14.4 µM (inactive) with SNB-19; 3.32 µM (inactive) with COLO 205.

Regarding `Brc1ccc2c(-c3nc(-c4c[nH]c5ccc(Br)cc45)cs3)c[nH]c2c1`, the GI50 in the assay on SR is 3.15 µM (inactive); in the assay with HCT-116, 3.67 µM (inactive); with SF-268, 4.82 µM (inactive); in the assay on RXF 393 it was 4.45 µM (inactive); with 786-0, 2.24 µM (inactive); in the assay with PC-3, 6 µM (inactive). For the same molecule, the GI50 was 8.75 µM (inactive) in the assay on UACC-257; 5.77 µM (inactive) in the assay with DU-145; 3.44 µM (inactive) with K562; 4.68 µM (inactive) with CCRF-CEM; 4.86 µM (inactive) with T47D; 11.3 µM (inactive) in the assay on SK-MEL-28. Besides, the GI50 with NCI/ADR-RES is 4.56 µM (inactive); with UACC-62, 2.87 µM (inactive); in the assay on UO-31, 4.1 µM (inactive); in the assay on MCF7 it was 0.887 µM (active); in the assay on SNB-19, 4.25 µM (inactive); in the assay with COLO 205 it was 2.54 µM (inactive).

Consider `CC(C)(C)C(O)CC(O)(C(F)(F)F)C(F)(F)F` (stereo not drawn), for which the GI50 in the assay with SR, in the assay on HCT-116, with SF-268, in the assay with RXF 393, in the assay with 786-0 and with PC-3 was > 100 µM (inactive) each time. Moreover, the GI50 with UACC-257, in the assay with DU-145, with K562, with CCRF-CEM, with T47D and in the assay with SK-MEL-28 was > 100 µM (inactive) in each case. For the same molecule, the GI50 with NCI/ADR-RES, in the assay on UACC-62, in the assay with UO-31, in the assay on MCF7, in the assay with SNB-19 and in the assay with COLO 205 was > 100 µM (inactive) throughout.

`O=S(=O)(O)c1ccc(/N=N/c2ccc(/N=N/c3c(O)ccc4ccc(S(=O)(=O)O)cc34)cc2)cc1`: the GI50 in the assay on SR, in the assay on HCT-116, in the assay with SF-268, in the assay on RXF 393, in the assay on 786-0 and in the assay with PC-3 was > 100 µM (inactive) throughout. Moreover, the GI50 with UACC-257, in the assay with DU-145, with K562, in the assay on CCRF-CEM, in the assay with T47D and with SK-MEL-28 was > 100 µM (inactive) throughout. In addition, the GI50 in the assay on NCI/ADR-RES, with UACC-62, in the assay on UO-31, in the assay on MCF7, with SNB-19 and in the assay with COLO 205 was > 100 µM (inactive) each time.

`O=c1cc(/C=C/c2ccc(O)c(O)c2)oc(/C=C/c2ccc(O)c(O)c2)c1`: the GI50 in the assay with SR was 1.07 µM (active); with HCT-116 it was 4.53 µM (inactive); with SF-268 it was 2.17 µM (inactive); with RXF 393, 2.72 µM (inactive); in the assay with 786-0, 5.75 µM (inactive); in the assay with PC-3, 5.73 µM (inactive). Moreover, the GI50 is 5.31 µM (inactive) in the assay with UACC-257; 4.55 µM (inactive) in the assay with DU-145; 2.11 µM (inactive) in the assay with K562; 1.24 µM (inactive) in the assay on CCRF-CEM; 1.98 µM (inactive) in the assay with T47D; 11.9 µM (inactive) with SK-MEL-28. Besides, the GI50 in the assay on NCI/ADR-RES was 26.1 µM (inactive); in the assay on UACC-62 it was 2.37 µM (inactive); in the assay with UO-31, 4.66 µM (inactive); in the assay with MCF7, 3.29 µM (inactive); in the assay on SNB-19, 3.82 µM (inactive); in the assay with COLO 205 it was 8.2 µM (inactive).

Consider `O=Cc1ccc(-c2nccc3c2[nH]c2ccccc23)o1`, for which the GI50 with SR was > 100 µM (inactive); in the assay with HCT-116 it was 55.7 µM (inactive); with SF-268, > 100 µM (inactive); in the assay with RXF 393, 22.2 µM (inactive); in the assay with 786-0 it was > 89.9 µM (inactive); with PC-3 it was 98.2 µM (inactive). Also, the GI50 with UACC-257 is 24.5 µM (inactive); in the assay on DU-145 it was > 100 µM (inactive); in the assay with K562, > 100 µM (inactive); in the assay on CCRF-CEM, > 100 µM (inactive); with T47D it was 47.9 µM (inactive); in the assay with SK-MEL-28, > 100 µM (inactive). The GI50 with NCI/ADR-RES was > 100 µM (inactive); with UACC-62, 26.9 µM (inactive); in the assay with UO-31, > 100 µM (inactive); in the assay with MCF7, 55 µM (inactive); in the assay with SNB-19, > 100 µM (inactive); in the assay on COLO 205 it was > 100 µM (inactive).

Regarding `COC(=O)[C@H]1ON2O[C@H](OC3CCCC[C@@H]3c3ccccc3)C[C@@H]3CC[C@H]1[C@@]32C` (stereo partly drawn), the GI50 is 72.9 µM (inactive) in the assay on SR; 79.1 µM (inactive) with HCT-116; > 100 µM (inactive) in the assay with SF-268; 45.9 µM (inactive) in the assay on RXF 393; > 100 µM (inactive) in the assay with 786-0; 47.6 µM (inactive) with PC-3. Moreover, the GI50 was > 100 µM (inactive) in the assay on UACC-257; > 100 µM (inactive) in the assay with DU-145; > 100 µM (inactive) with K562; > 100 µM (inactive) in the assay with CCRF-CEM; 46.5 µM (inactive) in the assay on T47D; > 100 µM (inactive) in the assay on SK-MEL-28. Besides, the GI50 in the assay with NCI/ADR-RES is > 100 µM (inactive); in the assay on UACC-62, > 100 µM (inactive); in the assay on UO-31, 97.3 µM (inactive); in the assay with MCF7, 65.6 µM (inactive); in the assay with SNB-19, > 100 µM (inactive); with COLO 205, 91.4 µM (inactive).

For the molecule `CC(C)(C)c1cc(C(=O)/C=C/c2ccc3c(c2)OCO3)cc(C(C)(C)C)c1O`, the GI50 with SR is 2.18 µM (inactive); in the assay on HCT-116 it was 4.51 µM (inactive); with SF-268, 8.79 µM (inactive); in the assay with RXF 393, 1.86 µM (inactive); with 786-0, 6.62 µM (inactive); in the assay with PC-3, 3.99 µM (inactive). Besides, the GI50 was 2.95 µM (inactive) in the assay on UACC-257; 5.06 µM (inactive) in the assay on DU-145; 5.24 µM (inactive) in the assay with K562; 3.48 µM (inactive) in the assay with CCRF-CEM; 2.55 µM (inactive) with T47D; 18.6 µM (inactive) in the assay with SK-MEL-28. Also, the GI50 is 4.29 µM (inactive) with NCI/ADR-RES; 6.04 µM (inactive) in the assay on UACC-62; 6.38 µM (inactive) in the assay on UO-31; 5.28 µM (inactive) with MCF7; 13.3 µM (inactive) in the assay on SNB-19; 5.61 µM (inactive) in the assay on COLO 205.

`COC(=O)c1ccc(NCc2cc(O)c3ccccc3c2O)cc1`: the GI50 was 4.54 µM (inactive) with SR; 15.7 µM (inactive) in the assay on HCT-116; 22.4 µM (inactive) with SF-268; 16.3 µM (inactive) with RXF 393; 16.1 µM (inactive) in the assay with 786-0; 17.2 µM (inactive) with PC-3. The GI50 was 7.87 µM (inactive) in the assay with UACC-257; 15.8 µM (inactive) in the assay with DU-145; 2.59 µM (inactive) in the assay with K562; 2.86 µM (inactive) with CCRF-CEM; 5.12 µM (inactive) in the assay with T47D; 5.65 µM (inactive) with SK-MEL-28. In addition, the GI50 is 27.1 µM (inactive) in the assay with NCI/ADR-RES; 3.67 µM (inactive) with UACC-62; 13.1 µM (inactive) in the assay with UO-31; 3.68 µM (inactive) in the assay on MCF7; 22.2 µM (inactive) with SNB-19; 5.06 µM (inactive) in the assay with COLO 205.
